Data reported in US9504746B2, “Pharmaceutical compositions of 4-(3-chloro-4-(cyclopropylaminocarbonyl)aminophenoxy)-7-methoxy-6-quinolinecarboxamide” (Eisai R&D Management Co., Ltd., priority 2004, dated 2016).

Experiment: pH of 5% (w/w) aqueous solution or suspension of additive
Type: physicochemical
Conditions: 5% (w/w) aqueous solution or suspension of the additive itself

SMILES	pH value of 5% (w/w) aqueous solution or suspension
O=C([O-])[O-].[Na+].[Na+] [Na2CO3, Sodium carbonate]	11.45
NCC(=O)O [Glycine]	6.17
[O]=[Mg] [MgO, Magnesium oxide]	10.63
O=C([O-])O.[Na+] [NaHCO3, Sodium hydrogencarbonate]	8.15
O=C1O[C@H](CO)[C@@H](O)[C@H](O)[C@H]1O [δ-Gluconolactone]	2.40
CC(=O)[O-].[Na+] [Sodium acetate]	8.46
O=P([O-])([O-])O.[K+].[K+] [Example K2HPO4, Dipotassium hydrogenphosphate]	9.11
O=C([O-])CC(O)(CC(=O)[O-])C(=O)[O-].[Na+].[Na+].[Na+] [Sodium citrate]	8.22
O=P([O-])([O-])O.[Na+].[Na+] [Na2HPO4, Disodium hydrogenphosphate]	9.26
[Na+].[OH-] [NaOH, Sodium hydroxide]	13.56
